Test results as given in US11180518B2, “Phenyl-heterocycle-phenyl derivatives for use in the treatment or prevention of melanoma” (MAX-PLANCK-GESELLSCHAFT ZUR FÖRDERUNG DER WISSENSCHAFTEN …, priority 2017, dated 2021).

How the values were obtained:
[1] = test system: α-synuclein-expressing WM983-B human metastatic melanoma cells; assay: Test screening of DPP compounds in human metastatic melanoma cells (cell death read-out); assay type: cell-based; settings: WM983B, second 10 μM dose at 48 hr, serum-free culture medium, read at 48 h / 96 h
Description: To determine the impact of the DPP compounds on high-level α-synuclein-expressing human melanoma cells, WM983-B melanoma cells were plated, in duplicate, in 12-well tissue culture plates in cell culture medium containing 10% fetal bovine serum. Twenty-four hours later, the cells were rinsed three-times with serum-free medium, followed by addition of serum-free medium containing each DPP compound at a dose of 10 μM. Following incubation of the DPP compound-treated cells at 37° C. for 48 hr, each DPP compound was added to the cells at a second 10 μM dose. Using light microscopy, changes in the cells' morphology>detachment of the cells from the cell culture dish/floating in the cell culture medium>cell death were recorded on a scale of 0, +, ++, +++, ++++ at the 24 hr, 48 hr, 72 hr and 96 hr time-point following addition of DPP compound.
The DPP compounds were added to α-synuclein-expressing WM983-B human metastatic melanoma cells.

[2] = test system: high-level α-synuclein expressing cell lines WM983-B; assay: Initial screen of sixteen compounds from the DPP library; assay type: cell-based, human
α-synuclein monomers = α-synuclein monomers (Homo sapiens, UniProt P37840); settings: cited from earlier work
WM1158 melanoma cells [3] = assay: Melanoma cell proliferation analysis; assay type: cell-based, human; settings: over 96 hr, replenishment at 48 hr
Description: (§1) To assess the possible impact of anle138b as well as anle138c on the different melanoma cell lines, WM983-A, WM983-B and SK-MEL-5, we treated them with increasing doses of either compound, dissolved in dimethyl sulfoxide (DMSO), and added to serum-free culture medium. […] We also observed that treatment with anle138b caused a more rapid morphological change than anle138c. To determine whether the effect of the two anle compounds was related to the amount of α-synuclein produced by the cells, we compared the proliferation of the (VGP) WM983-A high-level and the (RGP/VGP) WM1158 low-level α-synuclein-producing melanoma cells over a period of 96 hr, with replenishment of each anle compound at 48 hr (FIGS. 8A and B).
(§2) 10 or 30 mM stock solutions of anle138b or anle138c were made in DMSO. Since anle138b as well as anle138c bind strongly to FBS, melanoma cells, plated for 24 hr in tissue-culture medium containing 10% FBS, were rinsed three times with serum-free medium prior to addition of anle138b, anle138c, or an equivalent volume of DMSO only in serum-free medium. Forty-eight hours later, the cell culture medium was removed, followed by addition of an equivalent dose of anle138b or anle138c, or DMSO only in serum-free culture medium. […] Proliferation of melanoma cells that had received DMSO only, or were treated with anle138b was determined by counting the cells with a hemocytometer.

SK-MEL-5 melanoma cells [4] = assay: Cell morphology (phase-contrast); assay type: cell-based, human; settings: increasing doses, serum-free medium; time- and dose-dependent
Description: as §1, §2
(§3) Cell morphology. Phase-contrast or DIC images of the melanoma cells that had been treated for various times with anle138b or anle138c, or had received DMSO only were captured with a 10×NA 0.6 objective on a Zeiss Axiovert 100 microscope with a Hamamatsu Orca charge-coupled device (CCD) camera. At least four images, at random areas per culture dish, were recorded for each time point.

WM983-B melanoma cells [5] = assay: Cell morphology (phase-contrast); assay type: cell-based, human; settings: increasing doses, serum-free medium; time- and dose-dependent
Description: as §1, §2, §3

WM1158 melanoma cells [6] = assay: Cell morphology (phase-contrast); assay type: cell-based, human; settings: 10 μM, up to 96 hr, replenishment at 48 hr
Description: as §1, §2, §3

Binding to FBS = assay type: in vitro ADME
[7] = test system: WM983-A, WM983-B, and SK-MEL-5 melanoma cell lines; assay: Apoptosis markers in treated melanoma cells; assay type: cell-based, human
Description: Although the morphological changes in the WM983-A, WM983-B, and SK-MEL-5 melanoma cell lines following addition of anle138b occurred quite rapidly, they were not indicative of the cells undergoing apoptosis. […] Differential interference contrast (DIC) images of the morphology of the anle138b-treated WM983-B, SK-MEL-5, and WM1158 melanoma cells from the same panels are shown in FIG. 9.

SK-MEL-5 melanoma cells [8] = assay: Autophagy: LC3 immunofluorescence; assay type: cell-based, human; settings: compared with WM983-B cells
Description: (§4) We observed a clear effect of the anle compounds on the autophagy pathway of the melanoma cells. […] Following addition of anle138c, the effect was seen later with levels of 8% at 24 hr and 78% after 96 hr.
(§5) Autophagy. WM983-B and SK-MEL-5 cells that for 24 or 48 hr were treated with anle138 or had received DMSO only were fixed for 20 min with 3.7% PFA, permeabilized, blocked, and probed with an anti-LC3B [clone 2G6] antibody (nanoTools Antikörpertechnik GmbH & Co. KG, Teningen, Germany), followed by a donkey anti-mouse Alexa-488 secondary antibody and Draq5 DNA counterstain. Confocal image stacks were obtained with a 63×NA 1.2 objective on a Zeiss LSM 510 Meta confocal microscope.

WM983-B melanoma cells [9] = assay: Autophagy: LC3 immunofluorescence; assay type: cell-based, human
Description: as §4, §5

| Compound | cytotoxicity at 10 µM [1] [%] | further results |
| --- | --- | --- |
| Brc1cccc(-c2cc(-c3ccc4c(c3)OCCCO4)n[nH]2)c1 | 100 |  |
| Brc1cccc(-c2cc(-c3ccc4c(c3)OCCO4)n[nH]2)c1 | 100 |  |
| Brc1cccc(-c2nc(-c3ccc4c(c3)OCCO4)co2)c1 | 100 |  |
| Brc1cccc(-c2cc(-c3ccc4nccnc4c3)n[nH]2)c1 | 100 |  |
| CN1CCOc2cc(-c3cc(-c4cccc(Br)c4)[nH]n3)ccc21 | 100 |  |
| COc1ccc(-c2cc(-c3cccc(F)c3)on2)cc1OC | 100 |  |
| Oc1ccc(-c2cc(-c3cccc(F)c3)on2)cc1O | 100 |  |
| Oc1ccc(-c2noc(-c3cccc(F)c3)n2)cc1O | 100 |  |
| Brc1cccc(-c2c[nH]c(-c3ccc4c(c3)OCO4)n2)c1 | 100 |  |
| FCCn1nc(-c2cccc(Br)c2)cc1-c1ccc2c(c1)OCO2 | 100 |  |
| Nc1cccc(-c2ncc(-c3ccc(Cl)c(Cl)c3)o2)c1 | 100 |  |
| COc1cccc(-c2c[nH]c(-c3cccc(Br)c3)n2)c1 | 100 |  |
| Clc1cccc(-c2cc(-c3ccc4c(c3)OCCO4)n[nH]2)c1 | 100 |  |
| CC1(C)CCc2cc(-c3cc(-c4cccc(Br)c4)[nH]n3)ccc2O1 | 100 |  |
| Clc1cccc(-c2cc(-c3ccc4c(c3)OCO4)n[nH]2)c1 | 100 |  |
| CN(C)c1ccc(-c2cc(-c3cccc(F)c3)on2)cc1 | 50 to 90 |  |
| Oc1ccc(-c2cc(-c3cccc(F)c3)[nH]n2)cc1O | 50 to 90 |  |

| Compound | cytotoxicity at 10 µM [1] [%] | further results |
| --- | --- | --- |
| Oc1cccc(-c2cc(-c3cccc(Cl)c3)[nH]n2)c1 | 50 to 90 |  |
| Cn1nc(-c2ccc3c(c2)OCO3)cc1-c1cccc(Br)c1 | 50 to 90 |  |
| Cc1ccc(Br)cc1-c1nc(-c2cccc(OC(F)(F)F)c2)no1 | 50 to 90 |  |
| Brc1cccc(-c2cc(-c3ccc4ccoc4c3)n[nH]2)c1 | 50 to 90 |  |
| FC1(F)Oc2ccc(-c3cc(-c4cccc(Br)c4)[nH]n3)cc2O1 | 20 to 50 |  |
| Brc1cccc(-c2cc(-c3ccc4ccccc4c3)n[nH]2)c1 | 20 to 50 |  |
| Nc1ccc(-c2cc(-c3cccc(Cl)c3)[nH]n2)cc1 | 20 to 50 |  |
| COc1ccc(-c2noc(-c3cccc(Cl)c3)n2)cc1 | 20 to 50 |  |
| Cn1ccc2cc(-c3cc(-c4cccc(Br)c4)[nH]n3)ccc21 | 20 to 50 |  |
| Fc1cccc(-c2cc(-c3ccc4c(c3)OCO4)n[nH]2)c1 | < 20 |  |
| CN(C)c1ccc(-c2cc(-c3cccc(Br)c3)no2)cc1 | < 20 |  |
| Brc1cccc(-c2nc(-c3ccc4c(c3)OCO4)no2)c1 | < 20 |  |
| Clc1cc(Cl)cc(-c2nc(-c3ccc4c(c3)OCO4)no2)c1 | < 20 |  |
| Oc1ccc(-c2cc(-c3cccc(Br)c3)[nH]n2)cc1O [anle138c] |  | effect on WM983-B cells in initial screen [2]: significantly affected; binding to α-synuclein monomers (α-synuclein monomers): Neither of these two compounds binds to α-synuclein monomers; proliferation (WM1158 melanoma cells [3]): reduced proliferation only after 48 hr; morphological changes (SK-MEL-5 melanoma cells [4]): major morphological changes; morphological changes (WM983-B melanoma cells [5]): major morphological changes; morphology (WM1158 melanoma cells [6]): did not show a significantly altered morphology; binding to FBS (Binding to FBS): bind strongly; cleaved caspase 3 (apoptosis) [7]: nor were they positive for cleaved caspase 3; levels of punctuate LC3 loci (SK-MEL-5 melanoma cells [8]): even higher levels; cells with punctuate upregulation of LC3 (WM983-B melanoma cells [9]; 24 hr, cells still attached): 8%; cells with punctuate upregulation of LC3 (WM983-B melanoma cells [9]; 96 hr): 78% |
| CN(C)c1ccc(-c2cc(-c3cccc(Br)c3)[nH]n2)cc1 [anle253b, 5-(3-Bromophenyl)-3-(4-dimethylaminophenyl)-1H-pyrazole] |  | effect on WM983-B cells in initial screen [2]: significantly affected |
| Oc1ccc(-c2cc(-c3cccc(Br)c3)[nH]n2)cc1O [drawing 77] | 100 |  |
| CN(C)c1ccc(-c2cc(-c3cccc(Br)c3)[nH]n2)cc1 [drawing 79] | 100 |  |
